In brackets after ≈: the same amount, converted by molar mass. Several values for one entry are separate records, joined by “and”; a condition that tells them apart may be missing. Equal entries are not always repeated.
How the values were obtained:
[1] = target: VmFbpA; test: 6×His-based VmFbpA inhibition assay (pull-down assay) of Fe3+ binding; format: biochemical, Vibrio metschnikovii; details: 60 min at 4°C, 20 mM Tris–HCl pH 8.0, 50 mM NaHCO3, 100 mM NaCl, read-out: IC50 to VmFbpA (inhibition of Fe^3+ binding)
Protocol: (§1) Fe^3+‐bound His6‐VmFbpA (30 μM, 200 μL) was loaded onto a 40 μL Ni‐NTA slurry resin (bed volume: 20 μL) in a Micro Bio‐Spin column (Bio‐Rad) and incubated at 4°C for 30 min. The column was extensively washed with wash buffer (20 mM Tris–HCl, pH 8.0, 50 mM NaHCO3, 100 mM NaCl). Various concentrations of RA, DSS, or CA (200 μL) were added to the column and incubated for 60 min at 4°C in a solvent consisting of 20 mM Tris–HCl, pH 8.0, 50 mM NaHCO3, and 100 mM NaCl. The column was washed extensively with wash buffer and eluted with 100 μL of elution buffer (wash buffer containing 250 mM imidazole). The Fe concentration of the eluent was determined using ICP‐MS as reported previously (Lu et al. [2019]) and adjusted to the protein concentration, which was measured using a Pierce 660 nm Protein Assay. Samples without FeCl3 were used as a negative control group and samples lacking inhibitors were used as a positive control group. All buffers contained 0.3% DMSO to solubilize the inhibitors, unless otherwise indicated.
(§2) The protein inhibitory rates were calculated using the following formula: Inhibitory rates%=1−Conc.Fesample−Conc.Feapo/Conc.Feholo−Conc.Feapo×100%
(§3) The inhibitory rate was plotted and fitted as a function of inhibitor concentration by a logarithmic function model using GraphPad Prism (version: 9.5.0) software. The 50% inhibitory concentration (IC50) was calculated by reading the concentration at the inhibitory rate of 50%.

[2] = Fe3+ reduction capacity (o-phenanthroline assay); details: 40 μM Fe^3+; concentration giving 20 μM Fe^2+; read-out: EC50 for reduction from Fe^3+ to Fe^2+
Protocol: Solutions containing 40 μM FeCl3 and varying concentrations of RA, DSS, and CA (0, 0.625, 1.25, 5, 10, 20, and 40 μM) were prepared and analyzed. Each sample was combined with 0.25% o‐phenanthroline (2 mL) followed by a pH adjustment to 3.5 with HCl, and Milli‐Q water was added to reach a final volume of 25 mL. After incubation at room temperature for 1 h, the absorbance at 510 nm was measured using a microplate spectrophotometer (Benchmark Plus, Bio‐Rad), and the concentration of Fe^2+ was determined using FeSO4·7H2O as a standard. The Fe^2+ concentrations were plotted and fitted as a function of Log2(inhibitor concentration) using GraphPad Prism (version: 9.5.0) software with a nonlinear regression model. The half maximal effective concentration (EC50) was calculated by reading the inhibitor concentrations at an Fe^2+ concentration of 20 μM.

[3] = target: VmFbpA; test: Isothermal titration calorimetry (ITC) of ligand binding to VmFbpA; parameters: species or system Vibrio metschnikovii; details: 298 K, 20 mM HEPES pH 8.0, 50 mM NaCl, apo VmFbpA, read-out: K D for VmFbpA
Protocol: The 6× His‐free apo VmFbpA samples were dialyzed overnight at 4°C against dialysis buffer (20 mM pH 8.0 HEPES, 50 mM NaCl). ITC was performed using MicroCal iTC200 (Malvern). RA, DSS, or CA was dissolved in dialysis buffer at a final concentration of 400 μM and injected 20 times by a motor‐driven syringe into 200 μL of 20 μM Apo VmFbpA. The first injection volume was 0.1 μL and subsequent injection volumes were 2.0 μL. The reference cell of the microcalorimeter was filled with 200 μL of the corresponding dialysis buffer. The titrations were performed at room temperature. The data were analyzed using MicroCal LLC iTC 200 for Windows (Malvern). All experiments were repeated at least twice to ensure reproducibility.

[4] = Stability of RA in gel filtration buffer by RPC; format: physicochemical
Protocol: The stability of RA (1 mg/mL) in gel filtration buffer (20 mM Tris–HCl, pH 8.0, and 100 mM NaCl) at 20°C was assessed in the presence and absence of VmFbpA (molar ratio: 1 to 1) by the same RPC analysis. Sampling was performed every week and diluted 100 times with buffer before injecting into a RESOURCE RPC column. The other conditions are the same as described above.

[5] = target: (UniProt Z9CIZ5JT55); test: 6×His-based VmFbpA inhibition assay (pull-down assay) of Fe3+ binding; format: biochemical, Vibrio metschnikovii; details: 60 min at 4°C, 20 mM Tris–HCl pH 8.0, 50 mM NaHCO3, 100 mM NaCl, read-out: IC50 to VmFbpA (inhibition of Fe^3+ binding)
Protocol: as §1, §2, §3

[6] = system: V. metchnikovii; parameters: method as in Lu et al. [2021]; details: 1000 μM; ref Lu et al. [2021]; cited from earlier work
[7] = parameters: method as in Sik et al. [2021]; details: after 3 months of storage; ref Sik et al. [2021]; cited from earlier work
[8] = system: V. metschnikovii; test: Bacteriostatic assay; format: cell-based; details: Vibrio metschnikovii, 20 h, NB medium, 37°C, 20 h culture; concentration at inhibitory rate of 95%
Protocol: A pre‐culture of V. metschnikovii was prepared in 5 mL of NB medium (3.0 g/L meat extract, 5.0 g/L meat peptone, 10.0 g/L NaCl, pH 7.0) at 37°C. When the OD600 reached ~0.6, 2 μL of the pre‐culture was inoculated into 200 μL of NB medium for the bacteriostatic assay. The culture was performed at 37°C in a 96‐well plate. Bacteriostatic agents (RA, DSS, and CA) were tested at a range of concentrations (5000 μM to 39 μM). The cultures without bacteriostatic agents were used as a natural growth control and the cultures without bacteria were used as the respective sterile controls (Blanks). The OD600 was measured using a microplate spectrophotometer (Benchmark Plus, Bio‐Rad).
The antibacterial inhibitory rates were calculated based on the following formula after culture for 20 h: Inhibitory rates%=1−OD600,NG−OD600,BKs−OD600,Is−OD600,BKs/OD600,NG−OD600,BKs×100%,
where NG, Is, and BKs refer to the natural growth control group, experimental groups with inhibitors, and their respective sterile control groups, respectively.
The inhibitory rate was plotted and fitted as a function of Log2(inhibitor concentration) using GraphPad Prism (version: 9.5.0) software with a nonlinear regression model. The MIC was calculated by reading the concentrations at the inhibitory rate of 95%.

[9] = system: Escherichia coli; parameters: method as in Lu et al. [2021]; details: 1000 μM; ref Lu et al. [2021]; cited from earlier work

Compound	IC50 [1]	EC50 [2]	Kd [3]	degradation of RA ([4]; 20 mM Tris–HCl pH 8.0, 100 mM NaCl, stored at 20°C for 1 week)	degradation rate of RA ([4]; 20 mM Tris–HCl pH 8.0, 100 mM NaCl, stored at 20°C for 2 weeks)	change of degradation rate of RA in the presence of VmFbpA ([4]; VmFbpA added at molar ratio 1:1, gel filtration buffer)	IC50 [5]	effect on growth of V. metchnikovii [6]	hydrolysis rate of RA aqueous solution [7]	MIC [8]	effect on growth of Escherichia coli [9]
O=C(O)[C@H](O)Cc1ccc(O)c(O)c1 [DSS, danshensu]	4000 ± 1000 µM	23 ± 1 µM	0.9 µM and ~0.9 µM								
O=C(/C=C/c1ccc(O)c(O)c1)O[C@H](Cc1ccc(O)c(O)c1)C(=O)O [RA, Rosmarinic acid]		14.4 ± 0.1 µM	1.1 ± 0.5 µM	5%	~ 30%	did not change significantly	2200 ± 300 µM	significantly reduced the growth	exceeded 10%	440 ± 70 µM (≈ 159 µg/mL)	did not affect the growth
O=C(O)/C=C/c1ccc(O)c(O)c1 [CA, caffeic acid]	6000 ± 2000 µM	31 ± 1 µM	18 µM and ~18 µM							> 3000 µM	

From article PMC10804667, “Molecular mechanism of Fe^3+ binding inhibition to Vibrio metschnikovii ferric ion‐binding protein, FbpA, by rosmarinic acid and its hydrolysate, danshensu” (Protein Science : A Publication of the Protein Society, 2024)
